# Test results published in ChEMBL document CHEMBL1152025, “Enzymatic asymmetric synthesis of (2R, 4R, 5S)-2-amino-4,5-(1,2-cyclohexyl)-7-phosphonoheptanoic acid, a potent, selective and competitive NMDA antagonist” (Bioorg Med Chem Lett, 1993).
# Tests used:
# [1] = target: Glutamate [NMDA] receptor; test: Tested for the inhibitory activity by the inhibition of excitatory L-[3H]Glutamate binding to NMDA recognition sites; type: protein-complex assay
# [2] = target: Glutamate [NMDA] receptor; test: Tested for the inhibitory activity by the inhibition of excitatory [3H]CGS-19,755 binding to NMDA recognition sites; type: protein-complex assay
# [3] = Tested for the ability to inhibit the pentylenetetrazole induced seizures against NMDA antagonist by intraperitoneal administration; type: functional; conditions: ip
# [4] = Tested for the ability to inhibit the NMDA induced seizures against NMDA antagonist by intraperitoneal administration; type: functional; conditions: ip
# [5] = Tested for the ability to inhibit the maximal electroshock induced seizures against NMDA antagonist by intraperitoneal administration; type: functional; conditions: ip
SMILES,IC50 [1] [nM],IC50 [2] [nM],ED50 [3] [mg/kg],ED50 [4] [mg/kg],ED50 [5] [mg/kg]
N[C@H](C[C@H]1CCCC[C@H]1CCP(=O)(O)O)C(=O)O,607,148,4.51,2.68,13.4
O=C(O)[C@H]1CN(CCCP(=O)(O)O)CCN1,321,86,–,–,–
"O=C(O)[C@@H]1C[C@H](CP(=O)(O)O)CCN1 (single isomer, unassigned) [SELFOTEL]",–,–,29,2.64,12.9
CC(=CC(N)C(=O)O)CP(=O)(O)O (stereo unspecified) [CGP-37849],25.7,18,> 10,3.41,3.64

# Further lines, with some results ahead:
IC50 [1] [nM],IC50 [2] [nM],SMILES,ED50 [3] [mg/kg],ED50 [4] [mg/kg],ED50 [5] [mg/kg]
6460,239,N[C@@H](C[C@@H]1CCCC[C@@H]1CCP(=O)(O)O)C(=O)O,–,–,–
3130,555,N[C@H](C[C@@H]1CCCC[C@@H]1CCP(=O)(O)O)C(=O)O,–,–,–
2590,264,N[C@@H](C[C@H]1CCCC[C@H]1CCP(=O)(O)O)C(=O)O,–,–,–
1600,976,NC(CC1CCCCC1CCP(=O)(O)O)C(=O)O (stereo unspecified),6.02,12.4,> 15
